# Assay results from US12084472B2 (Ardelyx, Inc., priority 2015, dated 2024).
# Target: T1, human TGR5 (Homo sapiens, UniProt Q8TDU6)
# T1 construct: expressed in transfected cells; host or cells: HEK293
# T1 sequence (Q8TDU6 1-330): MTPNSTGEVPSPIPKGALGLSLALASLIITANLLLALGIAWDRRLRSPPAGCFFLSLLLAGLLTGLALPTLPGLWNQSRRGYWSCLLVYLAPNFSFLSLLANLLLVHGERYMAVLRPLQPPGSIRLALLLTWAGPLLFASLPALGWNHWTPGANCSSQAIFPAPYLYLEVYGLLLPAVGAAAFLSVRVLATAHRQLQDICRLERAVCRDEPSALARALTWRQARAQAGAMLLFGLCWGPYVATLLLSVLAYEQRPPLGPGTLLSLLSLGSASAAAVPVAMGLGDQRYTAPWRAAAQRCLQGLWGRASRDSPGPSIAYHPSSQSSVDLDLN
# Assay: Cell-based TGR5 assay (cAMP generation, HTRF)
# Conditions: HEK293 cells stably transfected with human TGR5; cAMP by HTRF; 30 minutes at 37° C.; read-out: pEC50 Human TGR5 (converted)
# In short: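 First, compounds in 3-fold serial dilution were placed in HBSS with 10 mM HEPES pH 7.4 and 0.5 mM IBMX. Next, human TGR5-expressing HEK293 cells were added and incubated 30 min at 37° C. Finally, cAMP was detected by HTRF and pEC50 derived by logistic fitting.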
row,Structure (SMILES),EC50 [µM]
1,"O=C(NC[C@H](O)[C@@H](O)[C@H](O)[C@H](O)CO)C12CCC(NS(=O)(=O)c3ccc(Cl)c(COC4(c5cnccc5-c5ccccc5OC5CC5)CC4)c3)(CC1)CC2 [Compound I-445, 4-[4-chloro-3-({1-[4-(2-cyclopropoxyphenyl)pyridin-3-yl]cyclopropoxy}methyl)benzenesulfonamido]-N-[(2S,3R,4R,5R)-2,3,4,5,6-pentahydroxyhexyl]bicyclo[2.2.2]octane-1-carboxamide]",0.126 to 1
2,"Clc1cccc(COC2(c3cnccc3-c3ccccc3OC3CC3)CC2)c1Cl [Compound I-47, 4-(2-cyclopropoxyphenyl)-3-{1-[(2,3-dichlorophenyl)methoxy]cyclopropyl}pyridine]",0.126 to 1
3,"O=C(NC[C@H](O)[C@@H](O)[C@H](O)[C@H](O)CO)C1CCC(NS(=O)(=O)c2ccc(Cl)c(COC3(c4cnccc4-c4ccccc4OC4CC4)CC3)c2)C1 (stereo partly drawn) [Compound I-439, 3-[4-chloro-3-({1-[4-(2-cyclopropoxyphenyl)pyridin-3-yl]cyclopropoxy}methyl)benzenesulfonamido]-N-[(2S,3R,4R,5R)-2,3,4,5,6-pentahydroxyhexyl]cyclopentane-1-carboxamide]",< 0.1
4,"Cc1cnc(SCCCC(=O)NC[C@H](O)[C@@H](O)[C@H](O)[C@H](O)CO)nc1CNC1(c2cnccc2-c2ccccc2OC2CC2)CC1 [Compound I-655, 4-({4-[({1-[4-(2-cyclopropoxyphenyl)pyridin-3-yl]cyclopropyl}amino)methyl]-5-methylpyrimidin-2-yl}sulfanyl)-N-[(2S,3R,4R,5R)-2,3,4,5,6-pentahydroxyhexyl]butanamide]",12.6 to 50.1
5,"O=C(O)CCCNC(=O)N(CCCCc1cc(Cl)c(COC2(c3cnccc3-c3ccccc3OC3CC3)CC2)cc1Cl)C[C@H](O)[C@@H](O)[C@H](O)[C@H](O)CO [Compound I-199, 4-[({4-[2,5-dichloro-4-({1-[4-(2-cyclopropoxyphenyl)pyridin-3-yl]cyclopropoxy}methyl)phenyl]butyl}[(2S,3R,4R,5R)-2,3,4,5,6-pentahydroxyhexyl]carbamoyl)amino]butanoic acid]",0.126 to 1
6,"CC(CCCC(=O)N(CCO)C[C@@H](O)[C@H](O)[C@@H](O)[C@@H](O)CO)c1ccc(Cl)c(CNC2(c3cnccc3-c3ccccc3OC3CC3)CC2)c1 (stereo partly drawn) [Compound I-331, 5-{4-chloro-3-[({1-[4-(2-cyclopropoxyphenyl)pyridin-3-yl]cyclopropyl}amino)methyl]phenyl}-N-(2-hydroxyethyl)-N-[(2R,3S,4S,5S)-2,3,4,5,6-pentahydroxyhexyl]hexanamide]",< 0.1
7,"C[C@H](CCCN)c1ccc(Cl)c(CNC2(c3cnccc3-c3ccccc3OC3CC3)CC2)c1 (single isomer, unassigned) [Compound I-251]",< 0.1
8,"O=C([C@H](O)[C@@H](O)[C@H](O)[C@H](O)CO)N(CCCCCCO)CCCCc1cc(Cl)c(COC2(c3cnccc3-c3ccccc3OC3CC3)CC2)cc1Cl [Compound I-83, (2R,3S,4R,5R)-N-{4-[2,5-dichloro-4-({1-[4-(2-cyclopropoxyphenyl)pyridin-3-yl]cyclopropoxy}methyl)phenyl]butyl}-2,3,4,5,6-pentahydroxy-N-(6-hydroxyhexyl)hexanamide]",< 0.1
9,"Cc1cc(COC2(c3cnccc3-c3ccccc3OC3CC3)CC2)c(Cl)cc1CCCCNC(=O)N[C@@H](CO)[C@@H](O)[C@H](O)[C@H](O)CO [Compound I-95, 1-(4-(5-chloro-4-((1-(4-(2-cyclopropoxyphenyl)pyridin-3-yl)cyclopropoxy)methyl)-2-methylphenyl)butyl)-3-((2S,3R,4S,5R)-1,3,4,5,6-pentahydroxyhexan-2-yl)urea]",< 0.1
10,"Cc1cc(CNC2(c3cnccc3-c3ccccc3OC3CC3)CC2)c(C)cc1CCCCNC(=O)NC[C@H](O)[C@@H](O)[C@H](O)[C@H](O)CO (stereo in doubt) [Compound I-147, 1-(4-{4-[({1-[4-(2-cyclopropoxyphenyl)pyridin-3-yl]cyclopropyl}amino)methyl]-2,5-dimethylphenyl}butyl)-3-[(2S,3R,4R,5R)-2,3,4,5,6-pentahydroxyhexyl]urea]",0.126 to 1
11,"CCN(CCCCN)S(=O)(=O)c1ccc(Cl)c(COC2(c3cnccc3-c3ccccc3OC3CC3)CC2)c1 [Compound I-463, N-(4-aminobutyl)-4-chloro-3-({1-[4-(2-cyclopropoxyphenyl)pyridin-3-yl]cyclopropoxy}methyl)-N-ethylbenzene-1-sulfonamide]",< 0.1
12,"CC(OCCc1cc(Cl)c(COC2(c3cnccc3-c3ccccc3OC3CC3)CC2)cc1Cl)C(=O)N(C)C[C@H](O)[C@@H](O)[C@H](O)[C@H](O)CO (stereo partly drawn) [Compound I-155, 2-{2-[2,5-dichloro-4-({1-[4-(2-cyclopropoxyphenyl)pyridin-3-yl]cyclopropoxy}methyl)phenyl]ethoxy}-N-methyl-N-[(2S,3R,4R,5R)-2,3,4,5,6-pentahydroxyhexyl]propanamide]",< 0.1
13,"O=C1O[C@H]([C@@H](O)[C@H](O)[C@H](O)CO)CN1CCCCc1cc(Cl)c(COC2(c3cnccc3-c3ccccc3OC3CC3)CC2)cc1Cl [Compound I-77, (5S)-3-{4-[2,5-dichloro-4-({1-[4-(2-cyclopropoxyphenyl)pyridin-3-yl]cyclopropoxy}methyl)phenyl]butyl}-5-[(1S,2R,3R)-1,2,3,4-tetrahydroxybutyl]-1,3-oxazolidin-2-one]",< 0.1
14,"COCCCN(C[C@H](O)[C@@H](O)[C@H](O)[C@H](O)CO)C(=O)CCCC(C)c1ccc(C)c(CNC2(c3cnccc3-c3ccccc3OC3CC3)CC2)c1 (stereo partly drawn) [Compound I-362, 5-{3-[({1-[4-(2-cyclopropoxyphenyl)pyridin-3-yl]cyclopropyl}amino)methyl]-4-methylphenyl}-N-(3-methoxypropyl)-N-[(2S,3R,4R,5R)-2,3,4,5,6-pentahydroxyhexyl]hexanamide]",< 0.1

# More lines, now with the values ahead:
row,EC50 [µM],Structure (SMILES)
1,< 0.1,"CN(CCCSc1ccc(Cl)c(CNC2(c3cnccc3-c3ccccc3OC3CC3)CC2)c1)C(=O)[C@@H](O)[C@@H](O)[C@H](O)[C@@H](O)CO [Compound I-511, (2S,3S,4R,5S)-N-[3-({4-chloro-3-[({1-[4-(2-cyclopropoxyphenyl)pyridin-3-yl]cyclopropyl}amino)methyl]phenyl}sulfanyl)propyl]-2,3,4,5,6-pentahydroxy-N-methylhexanamide]"
2,0.126 to 1,"CN(C)C(=O)CN(C[C@H](O)[C@@H](O)[C@H](O)[C@H](O)CO)C(=O)CCCSc1ccc(Cl)c(COC2(c3cnccc3-c3ccccc3OC3CC3)CC2)c1 [Compound I-674, 4-{[4-chloro-3-({1-[4-(2-cyclopropoxyphenyl)pyridin-3-yl]cyclopropoxy}methyl)phenyl]sulfanyl}-N-[(dimethylcarbamoyl)methyl]-N-[(2S,3R,4R,5R)-2,3,4,5,6-pentahydroxyhexyl]butanamide]"
3,0.126 to 1,"O=C([C@@H](O)[C@@H](O)[C@H](O)[C@@H](O)CO)N(CCCCO)CCCSc1ccc(Cl)c(COC2(c3cnccc3-c3ccccc3OC3CC3)CC2)c1 [Compound I-519, (2S,3S,4R,5S)-N-(3-{[4-chloro-3-({1-[4-(2-cyclopropoxyphenyl)pyridin-3-yl]cyclopropoxy}methyl)phenyl]sulfanyl}propyl)-2,3,4,5,6-pentahydroxy-N-(4-hydroxybutyl)hexanamide]"
4,< 0.1,C[C@@H](CCCCNC(=O)N[C@@H](CO)[C@@H](O)[C@H](O)[C@H](O)CO)c1ccc(Cl)c(COC2(c3cnccc3-c3ccccc3OC3CC3)CC2)c1 [Compound I-263]
5,0.126 to 1,"O=C([C@@H](O)[C@@H](O)[C@H](O)[C@@H](O)CO)N(CCCSc1ccc(Cl)c(CNC2(c3cnccc3-c3ccccc3OC3CC3)CC2)c1)CC1CCOCC1 [Compound I-553, (2S,3S,4R,5S)-N-[3-({4-chloro-3-[({1-[4-(2-cyclopropoxyphenyl)pyridin-3-yl]cyclopropyl}amino)methyl]phenyl}sulfanyl)propyl]-2,3,4,5,6-pentahydroxy-N-(oxan-4-ylmethyl)hexanamide]"
6,< 0.1,"CN(C[C@H](O)[C@@H](O)[C@H](O)[C@H](O)CO)S(=O)(=O)c1ccc(Cl)c(COC2(c3cnccc3-c3ccccc3OC3CC3)CC2)c1 [Compound I-398, (2S,3R,4R,5R)-S-[4-chloro-3-({1-[4-(2-cyclopropoxyphenyl)pyridin-3-yl]cyclopropoxy}methyl)phenyl]-2,3,4,5,6-pentahydroxy-N-methylhexane-1-sulfonamido]"
7,< 0.1,"CS(=O)(=O)NCCN(CCCSc1ccc(Cl)c(COC2(c3cnccc3-c3ccccc3OC3CC3)CC2)c1)C(=O)[C@@H](O)[C@@H](O)[C@H](O)[C@@H](O)CO [Compound I-593, (2S,3S,4R,5S)-N-(3-{[4-chloro-3-({1-[4-(2-cyclopropoxyphenyl)pyridin-3-yl]cyclopropoxy}methyl)phenyl]sulfanyl}propyl)-2,3,4,5,6-pentahydroxy-N-(2-methanesulfonamidoethyl) hexanamide]"
8,0.126 to 1,"CS(=O)(=O)NCCCCN(CCCSc1ccc(Cl)c(COC2(c3cnccc3-c3ccccc3OC3CC3)CC2)c1)C(=O)[C@@H](O)[C@@H](O)[C@H](O)[C@@H](O)CO [Compound I-580, (2S,3S,4R,5S)-N-(3-{[4-chloro-3-({1-[4-(2-cyclopropoxyphenyl)pyridin-3-yl]cyclopropoxy}methyl)phenyl]sulfanyl}propyl)-2,3,4,5,6-pentahydroxy-N-(4-methanesulfonamidobutyl) hexanamide]"
